What was measured:
[1] = Change of mouse weight in high fat diet mice; assay type: in vivo; conditions: vs HFD group
Method: (§1) The C57BL/6 mice (purchased from National Laboratory Animal Center, Taiwan) were bred in Laboratory Animal Center of China Medical University, Taiwan (conditions: 3 mice were bred per cage; the temperature of the breeding room ranged from 20° C. to 24° C., and the relative humidity ranged from 50% to 70%; the light cycle was 12 hours; sufficient water and normal diet were supplied daily) until they were 4 weeks old. Then, the mice were randomly divided into seven groups (six mice per group), and individually subjected to the following treatment and experimentation:
(§2) (3) Oral administration of butylidenephthalide (BP) group (i.e., “HFD+BP” group): the mice were continuously fed with a high fat diet, and then simultaneously administered with butylidenephthalide (BP) by oral route at the beginning of the ninth week (dosage amount: every day, 250 mg/kg-body weight) until they were 18 weeks old. […]
B2-1. In the preparation process of above Example A2, the weight change of mice was recorded every week until they were 18 weeks old.
To understand whether butylidenephthalide (BP) is effective in inhibiting weight gain or not, the average value of the recorded weights of mice in each group of Example B2-1 was obtained weekly.

[2] = system: adipose stem cells; assay: Production of adipose droplets in adipose cells differentiated from adipose stem cells (microscope morphology, oil red stain); assay type: cell-based; conditions: 7 days
Method: A DMEM medium (brand name: GIBCO; product number: 11965092) was used as a basic medium, and rosiglitazone (concentration: 0.5 μM, solvent: dimethyl sulfoxide (DMSO)), insulin (concentration: 170 nM, solvent: culture medium), 3-isobutyl-1-methylxanthine (IBMX; concentration: 0.5 μM, solvent: DMSO) and dexamethasone (concentration: 1 μM, solvent: DMSO) were externally added therein to provide a conditional medium.
The adipose stem cells (ADSCs) were cultivated in a DMEM/F12 medium at 37° C., 5% CO2 for 5 days. […] The results are shown in FIG. 1 (i.e., adipose stem cells (undifferentiated)).
The aforementioned pre-cultivated adipose stem cells provided by Example B1-1 were cultivated in a conditional medium provided by Example A1 at 37° C., 5% CO2 for 7 days to differentiate into adipose cells. […] The results are also shown in FIG. 1 (i.e., adipose cells (differentiated)).
(§3) The adipose cells provided by Example B1-2 were divided into seven groups and independently subjected to the following treatments:
(2) BP-2 group: cells were cultivated in a conditional medium that was externally added with butylidenephthalide (BP) (to a final concentration of 2 μg/mL) for 7 days (butylidenephthalide (BP) was purchased from ECHO CHEMICAL Co., Ltd. (Taiwan); product number: A10353);
(§4) (3) BP-10 group: cells were cultivated in a conditional medium that was externally added with butylidenephthalide (BP) (to a final concentration of 10 μg/mL) for 7 days;
(4) BP-50 group: cells were cultivated in a conditional medium that was externally added with butylidenephthalide (BP) (to a final concentration of 50 μg/mL) for 7 days;
First, the cell morphology of each group in photos taken in Examples B1-1, B1-2 and B1-3 was observed.
Thereafter, the adipose droplets of adipose stem cells (undifferentiated) provided by Example B1-1, adipose cells (differentiated) provided by Example B1-2 and adipose cells in “BP-2 group”, “BP-10 group” and “BP-50 group” provided by Example B1-3 were stained by oil red dye, and the morphology thereof was taken photos and recorded. Then, the number of adipose droplets of adipose cells in each group was quantified.

[3] = system: C57BL/6 mice; assay: Fat browning in subcutaneous and visceral adipose tissue slices of high fat diet mice (H&E stain); assay type: in vivo; conditions: 18 weeks old, BP oral 250 mg/kg-body weight daily from week 9, cells i.v. 4×10^5 every two weeks from week 11, vs HFD group
Method: as §1, §2
B2-3. […] The weight of the subcutaneous adipose tissue and visceral adipose tissue of mice were measured and recorded, and the collected organs were kept at a temperature of −80° C. for following experimentation and analysis. […]

[4] = system: C57BL/6 mice; assay: Contents of glucose, triglycerides and total cholesterol in blood of high fat diet mice; assay type: in vivo
Method: as §1
(§5) (3) Oral administration of butylidenephthalide (BP) group (i.e., “HFD+BP” group): the mice were continuously fed with a high fat diet, and then simultaneously administered with butylidenephthalide (BP) by oral route at the beginning of the ninth week (dosage amount: every day, 250 mg/kg-body weight) until they were 18 weeks old.
(§6) (4) Cell infusion of adipose stem cells group (i.e., “HFD+ADSC” group): the mice were continuously fed with a high fat diet, and then simultaneously administered with adipose stem cells by intravenous injection at the beginning of the eleventh week (dosage amount: every two weeks, 4×10^5 cells suspended in 100˜150 μL of normal saline) until they were 18 weeks old (four injections in total).
(5) Oral administration of butylidenephthalide (BP) in combination with cell infusion of adipose stem cells group (i.e., “HFD+BP+ADSC” group): the mice were continuously fed with a high fat diet, then simultaneously administered with butylidenephthalide (BP) by oral route at the beginning of the ninth week (dosage amount: every day, 250 mg/kg-body weight), and further simultaneously administered with adipose stem cells by intravenous injection at the beginning of the eleventh week (dosage amount: every two weeks, 4×10^5 cells suspended in 100˜150 μL of normal saline) until they were 18 weeks old (four injections in total).
(6) Cell infusion of brown-like adipose cells group (i.e., “HFD+BLC” group): the mice were fed with a high fat diet, and then simultaneously administered with brown-like adipose cells provided by Example 1 by intravenous injection at the beginning of the eleventh week (dosage amount: every two weeks, 4×10^5 cells suspended in 100˜150 μL of normal saline) until they were 18 weeks old (four injections in total).
(7) Oral administration of butylidenephthalide (BP) in combination with cell infusion of brown-like adipose cells group (i.e., “HFD+BP+BLC” group): the mice were continuously fed with a high fat diet, then simultaneously administered with butylidenephthalide (BP) by oral route (dosage amount: every day, 250 mg/kg-body weight) at the beginning of the ninth week, and further simultaneously administered with brown-like adipose cells provided by Example 1 by intravenous injection at the beginning of the eleventh week (dosage amount: every two weeks, 4×10^5 cells suspended in 100˜150 μL of normal saline) until they were 18 weeks old (four injections in total).
B2-2. After Example B2-1 was accomplished, the mice was subjected to fast for 12 hours, and then the blood of mice was collected in a serum tube by cardic blood collection. The collected blood was stand for 30 minutes, and then subjected to centrifuge at 3000 rpm, 4° C. for 10 minutes. The supernatant thus provided was collected (i.e., blood sample) and kept at a temperature of 4° C. for following experimentation and analysis.
To understand whether butylidenephthalide (BP) is effective in reducing the contents of glucose, triglycerides and total cholesterol in blood or not, the blood sample of mice in each group provided by Example B2-2 was detected by a SYSMEX K-1000 and TOSHIBA TBA200FA automatic blood analyzer to analyze the contents of glucose, triglycerides and total cholesterol in blood of mice. The results of each group were averaged. Based on the result of “HFD” group, the relative contents of glucose, triglycerides and total cholesterol of each group were calculated.

[5] = system: C57BL/6 mice; assay: Accumulation of white fat: organ appearance and weight of subcutaneous and visceral adipose tissue of high fat diet mice; assay type: in vivo
Method: as §1, §5, §6
(5) Oral administration of butylidenephthalide (BP) in combination with cell infusion of adipose stem cells group (i.e., “HFD+BP+ADSC” group): the mice were continuously fed with a high fat diet, then simultaneously administered with butylidenephthalide (BP) by oral route at the beginning of the ninth week (dosage amount: every day, 250 mg/kg-body weight), and further simultaneously administered with adipose stem cells by intravenous injection at the beginning of the eleventh week (dosage amount: every two weeks, 4×10^5 cells suspended in 100˜150 μL of normal saline) until they were 18 weeks old (four injections in total). […]
B2-3. […] The weight of the subcutaneous adipose tissue and visceral adipose tissue of mice were measured and recorded, and the collected organs were kept at a temperature of −80° C. for following experimentation and analysis.
To understand whether butylidenephthalide (BP) can alleviate the accumulation of white fat or not, the photos of appearances of the liver, heart, kidney, subcutaneous adipose tissue and visceral adipose tissue of mice in each group recorded in Example B2-3 are shown in FIG. 6A. The weight of subcutaneous adipose tissue and visceral adipose tissue of mice in each group recorded in Example B2-3 were respectively averaged.

[6] = system: adipose cells; assay: Oxygen consumption rate and spare respiratory capacity of adipose cells (XF24 extracellular flux analyser); assay type: cell-based; conditions: 7 days, vs differentiated adipose cells not treated by BP
Excerpt: As described above, different from white adipose cells, the morphology of brown-like adipose cells/brown adipose cells is characterized by (i) containing numerous adipose droplets, (ii) containing a large number of mitochondria and (iii) having highly expressed uncoupling protein 1 (UCP1). […] Therefore, the number and proportion of brown-like adipose cells/brown adipose cells can be conceived by observing the number of adipose droplets in the cells, the oxygen consumption rate of adipose cells and the gene and protein expressions of UCP1.
After a medium was replaced with a fresh medium, the cells were continuously cultivated at 37° C. for 1 hour. Then, the mitochondrial biosynthesis of cells in each group was separately interfered with 25 μM oligomycin, 0.5 μM FCCP and 5 μM rotenone/antimycin A sequentially, and was continuously detected by a XF24 extracellular flux analyser (purchased from Seahorse Bioscience) prior to and during conduction of the aforementioned interference. The oxygen tension and acidification degree in the culture medium were detected by an adjusted probe to further calculate the oxygen consumption rate and spare respiratory capacity. The results of oxygen consumption rate are shown in FIG. 3A, and the results of basic oxygen consumption rate and spare respiratory capacity are shown in FIG. 3B.

[7] = system: UCP1; assay: UCP1 gene (RT-PCR) and UCP1 protein (Western blot) expression in adipose cells; assay type: cell-based; conditions: 7 days
Method: as §3
(1) Control group: cells were cultivated in a conditional medium provided by A1 for 7 days;
as §4
(5) Tofacitinib group: cells were cultivated in a conditional medium that was externally added with tofacitinib (to a final concentration of 2 μM) for 7 days (tofacitinib was purchased from UNI-ONWARD Corp. (Taiwan); product number: PZ0017);
(6) Adenosine group: cells were cultivated in a conditional medium that was externally added with adenosine (to a final concentration of 1 μM) for 7 days (adenosine was purchased from UNI-ONWARD Corp. (Taiwan); product number: A4036); and
(7) Proanthocyanidin group: cells were cultivated in a conditional medium that was externally added with proanthocyanidin (to a final concentration of 10 μM) for 7 days (adenosine was purchased from Hong Jing Co., Ltd. (Taiwan); product number: sc-344976).
The cells in each group provided by Example B1-3 were separately collected, and then the total RNA and protein of the cells were individually extracted for the following experimentation.
The total RNA was subjected to reverse transcription to provide cDNA, and then the expression of UCP1 gene of the cells in each group was analyzed by reverse transcription polymerase chain reaction (RT-PCR). The results are shown in FIG. 4A, wherein FABP4 gene was a biomarker of mature adipose cells, and thus, it was used as an internal control of adipose cells in this experimentation. The actin gene was used as an internal control of all the cells. Furthermore, the expression of UCP1 protein of the cells in each group was analyzed by Western blot. The results are shown in FIG. 4B, wherein FABP4 protein was used as an internal control of adipose cells. The actin was used as an internal control of all the cells.

[8] = based on the result of HFD group (100)
[9] = high fat diet mice, 18 weeks old, fasted 12 hours, BP oral 250 mg/kg-body weight daily, cells i.v. 4×10^5 every two weeks
[10] = high fat diet mice, vs HFD group
[11] = 18 weeks old, BP oral 250 mg/kg-body weight daily from week 9, cells i.v. 4×10^5 every two weeks from week 11

## CCCC=C1OC(=O)c2ccccc21 [BP, butylidenephthalide]
[1]
  weights of mice (weight gain, 9 to 18 weeks old, FIG. 7): increased significantly less
[2]; BP 2 μg/mL, vs adipose cells not treated by BP
  content of adipose droplets (oil red stain, FIGS. 2A, 2B): contained more adipose droplets
[2]; BP 10 μg/mL in conditional medium, vs undifferentiated adipose stem cells and differentiated adipose cells
  adipose droplets in cells (microscope morphology, FIG. 1): contained more adipose droplets
[2]; BP 10 μg/mL, vs adipose cells not treated by BP and other BP groups
  content of adipose droplets (oil red stain, FIGS. 2A, 2B): highest content of adipose droplets
[2]; BP 50 μg/mL, vs adipose cells not treated by BP
  content of adipose droplets (oil red stain, FIGS. 2A, 2B): contained more adipose droplets
[3]
  cell morphology of subcutaneous and visceral adipose tissue (FIGS. 5A, 5B): contained the brown adipose cells with numerous small adipose droplets
[4]; [8]
  Relative content of glucose: 85
  Relative content of total cholesterol: 80
  Relative content of triglycerides: 84
[4]; [9]
  Glucose (serum): 411.50 ± 43.50 mg/dL
  Total cholesterol (serum): 157.50 ± 1.50 mg/dL
  Triglycerides (serum): 213.50 ± 50.50 mg/dL
[4]; [10]
  content of glucose in blood, in words: significantly lower
  content of total cholesterol in blood (FIG. 8C; printed as triglycerides), in words: significantly lower
  content of triglycerides in blood, in words: significantly lower
[5]; [11]
  Subcutaneous adipose tissue (weight, average): 0.24 g
  Visceral adipose tissue (weight, average): 0.57 g
[5]; vs HFD group
  accumulation condition of white fat in visceral (appearance, FIG. 6A): significantly alleviated
  weights of subcutaneous fat and visceral fat, in words: significantly lower
[6]; BP 2 μg/mL
  oxygen consumption rate (FIG. 3A): higher oxygen consumption rate
  spare respiratory capacity (FIG. 3B): higher
[6]; BP 10 μg/mL
  oxygen consumption rate (FIG. 3A): higher oxygen consumption rate
  spare respiratory capacity (FIG. 3B): higher
[6]; BP 50 μg/mL
  oxygen consumption rate (FIG. 3A): higher oxygen consumption rate
  spare respiratory capacity (FIG. 3B): higher
[7]; BP 10 μg/mL vs tofacitinib 2 μM, adenosine 1 μM, proanthocyanidin 10 μM
  increments of UCP1 gene and UCP1 protein compared with known drugs: higher than that of tofacitinib group, adenosine group and proanthocyanidin group
[7]; BP 10 μg/mL, vs control group
  expression of UCP1 gene (RT-PCR, FIG. 4A): significantly increased
  expression of UCP1 protein (Western blot, FIG. 4B): significantly increased

From patent publication US11920157B2, “Applications of butylidenephthalide” (NATIONAL DONG HWA UNIVERSITY, priority 2016, dated 2024)
